ChEMBL document CHEMBL1201862, “PubChem BioAssay data set” (2004)
Active and inactive are the calls of the source.

Tests used:
[1] = tested on: HeLa; test: HeLa cell cytotoxicity, dose response, cytotoxicity control, ATP luminescence, cherry-pick samples (AID 687004); assay type: functional, cell-based; details: Homo sapiens
[2] = cytotoxicity in COV362 ovarian cancer cells, dose response, cytotoxicity control for PAX8 inhibitor project, cell-based, plate reader, dry powder, SA12 (AID 743144); assay type: functional
[3] = NIH:OVCAR-3 ovarian cancer cell cytotoxicity, dose response, PAX8 inhibitor project, plate reader, dry powder samples (AID 743044); assay type: functional, cell-based
[4] = cytotoxicity dependent on PAX8, dose response, cell-based, plate reader, dry powder (AID 743049); assay type: functional
[5] = cytotoxicity in OV-90 ovarian cancer cells, dose response, PAX8 inhibitor project, cell-based, plate reader, dry powder, SA8 (AID 743149); assay type: functional
[6] = cytotoxicity in COV434 cells, dose response, cytotoxicity control for PAX8 inhibitor project, cell-based, plate reader, dry powder, SA7 (AID 743145); assay type: functional
[7] = cytotoxicity in OVCAR4 cells, dose response, cytotoxicity control for PAX8 inhibitor project, cell-based, plate reader, dry powder, SA11 (AID 743150); assay type: functional; details: OVCAR-4
[8] = IGROV1 ovarian cancer cell cytotoxicity, dose response, PAX8 inhibitor project, plate reader, dry powder samples (AID 743043); assay type: functional, cell-based; details: IGROV-1
[9] = IOSE-T80 ovarian epithelial cell cytotoxicity, dose response, cytotoxicity control for PAX8 inhibitor project, plate reader, dry powder samples (AID 743045); assay type: functional, cell-based
[10] = HEK293 cell cytotoxicity, dose response, cytotoxicity control, plate reader, cherry-picked samples (AID 743446); assay type: functional, cell-based
[11] = LGR2 antagonists, dose response, cell-based, HEK293, CRE-luciferase reporter, cherry pick (AID 743342); assay type: functional
[12] = A549 cell cytotoxicity, dose response, cytotoxicity control, plate reader, cherry-pick, antagonist series (AID 743412); assay type: functional, cell-based
[13] = MC4R antagonists, dose response, counter-screen for LGR2 antagonist project, cell-based, plate reader, cherry pick (AID 743444); assay type: functional;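 further: transfected HEK 293 cells stimulated with alpha-MSH peptide; potency of inhibitors of the alpha-MSH evoked signal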
[14] = IRAP inhibitors, dose response, selectivity assay for ERAP1 modulator project, biochemical, Leu-AMC fluorescence, cherry-picked samples, set 2 (AID 743340)
[15] = target: T1, High affinity choline transporter 1 (Homo sapiens, UniProt Q9GZV3); test: CHT choline uptake inhibitors, dose response, cell-based, HEK-293 hCHT, [3H]-choline uptake (AID 652177); assay type: functional
T1 sequence (Q9GZV3 whole entry): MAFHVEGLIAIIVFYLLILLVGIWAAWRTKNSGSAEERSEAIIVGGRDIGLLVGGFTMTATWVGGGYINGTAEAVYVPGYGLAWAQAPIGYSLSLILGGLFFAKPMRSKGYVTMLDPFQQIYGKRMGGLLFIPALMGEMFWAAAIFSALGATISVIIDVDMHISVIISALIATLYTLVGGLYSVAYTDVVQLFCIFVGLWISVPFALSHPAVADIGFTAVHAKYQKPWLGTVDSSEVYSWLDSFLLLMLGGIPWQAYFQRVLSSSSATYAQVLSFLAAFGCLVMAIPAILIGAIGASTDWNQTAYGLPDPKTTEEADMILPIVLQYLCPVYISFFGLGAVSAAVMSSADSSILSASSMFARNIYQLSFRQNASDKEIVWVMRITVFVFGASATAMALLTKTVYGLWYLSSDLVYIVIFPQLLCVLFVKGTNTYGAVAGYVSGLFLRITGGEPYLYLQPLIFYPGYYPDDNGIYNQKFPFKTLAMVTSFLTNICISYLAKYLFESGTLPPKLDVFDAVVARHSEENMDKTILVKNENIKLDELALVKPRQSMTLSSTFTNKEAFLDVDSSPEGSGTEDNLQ

[16] = cytotoxicity in HeLa cells, dose response, cytotoxicity control, cell-based, 24 h, dry powder, set 2 (AID 651774); assay type: functional
[17] = target: T2, Oxysterols receptor LXR-beta (Homo sapiens, UniProt P55055); assay type: functional, cell-based;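 further: agonist activity at LXR measured by a cell-based luminescence readout across a dose range, run as a counterscreen for daf-12 agonists; HEK293 cells with Gal4-LXR fusion and GAL4-driven luciferase reporter; potency for activation of Gal4-LXR reporter so compounds are agonists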
T2 sequence (P55055 whole entry): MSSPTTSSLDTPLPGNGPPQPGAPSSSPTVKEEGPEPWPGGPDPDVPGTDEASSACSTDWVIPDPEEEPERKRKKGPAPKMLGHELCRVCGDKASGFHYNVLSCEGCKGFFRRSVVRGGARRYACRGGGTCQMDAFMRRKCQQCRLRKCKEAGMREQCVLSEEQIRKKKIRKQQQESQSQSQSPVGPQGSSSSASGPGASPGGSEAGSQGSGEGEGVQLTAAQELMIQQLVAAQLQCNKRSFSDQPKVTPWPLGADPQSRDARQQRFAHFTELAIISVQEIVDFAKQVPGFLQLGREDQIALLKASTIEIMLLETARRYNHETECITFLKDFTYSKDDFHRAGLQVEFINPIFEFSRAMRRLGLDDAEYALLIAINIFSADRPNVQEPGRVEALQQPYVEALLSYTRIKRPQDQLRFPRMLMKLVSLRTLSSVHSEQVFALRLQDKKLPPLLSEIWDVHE

[18] = tested on: H4; test: Luminescence Cell-Based Dose Response HTS to Identify Activators of 5'UTR Stem-Loop Driven Prion Protein mRNA Translation in H4 Neuroglioblastoma Cells. [Related pubchem assays: 1829 (Project Summary), 1814 (Primary HTS)]; assay type: functional; details: Homo sapiens

For C[C@H](CO)N1C[C@H](C)[C@H](CN(C)Cc2ccccc2)Oc2cc(C#Cc3ccccn3)ccc2S1(=O)=O, the AC50 [1] was > 52 µM (inactive).

For O=C(CCCN1C(=O)/C(=C\c2cccc(Br)c2)SC1=S)Nc1ccccn1, the AC50 [2] was 46.2 µM (active), the AC50 [3] was 18.9 µM (active) and the AC50 [4] was 17.6 µM (active). The AC50 [5] was 36.8 µM (active), the AC50 [6] was 49.7 µM (active) and the AC50 [7] was 42.7 µM (active). For the same compound, the AC50 [8] was 14.8 µM (active) and the AC50 [9] was 68.5 µM (active).

With COc1ccc(S(=O)(=O)N(C)C[C@@H]2OCCCC[C@H](C)Oc3ccc(NS(=O)(=O)c4ccc(Cl)cc4)cc3C(=O)N([C@@H](C)CO)C[C@@H]2C)cc1 the AC50 [10] was 28.5 µM (active), the AC50 [11] was 3.79 µM (active) and the AC50 [12] was 5.98 µM (active). The AC50 [13] was 4.58 µM (active).

With COc1ccc(CN(C)C[C@@H]2OCCCC[C@@H](C)Oc3ccc(NS(=O)(=O)c4c(C)noc4C)cc3C(=O)N([C@@H](C)CO)C[C@@H]2C)cc1 the AC50 [14] was 16.2 µM (active).

For COc1ccc(C(=O)NCc2csc(C)n2)cc1OC1CCN(C(C)C)CC1, the IC50 [15] was 6.18 µM (active).

In the case of c1ccc(-c2ccc(CCNC3CCCC3)cc2)cc1, the AC50 [16] was > 70 µM (inactive).

In the case of COC(=O)C1C(=O)c2c([nH]c(C(=O)OC3CCCCC3)c2C)CC1C (stereo not drawn), the EC50 [17] was > 67.5 µM (inactive) and the EC50 [18] was 8.72 µM (active).
